Laboratory results as given in patent US10308615B2, “Heterocyclic compounds as inhibitors of Vanin-1 enzyme” (Pfizer Inc., priority 2015, dated 2019).

Assays:
[1] = biological target: T1, human vanin-1 (Homo sapiens (Human), UniProt O95497); test: Human Vanin-1 Enzyme Assay 1; assay type: biochemical; details: 25 pM human vanin-1, 50 uM pantetheine 7-amino-4-trifluoromethylcoumarin, 30 min preincubation, 60 min
Experimental: Human Vanin-1 Enzyme Assay 1.
(§1) The in vitro assay measures enzymatic cleavage of the fluorescently-labeled vanin substrate, pantetheine 7-amino-4-trifluoromethylcoumarin, by human vanin-1.
(§2) The vanin-1 protein was prepared in-house from a construct expressing the extracellular domain of human vanin-1 (GenBank ID NM_004666) preceded N-terminally by the honey bee melittin signal peptide, a GSG linker sequence, a His6X tag and a FLAG tag. The secreted, soluble enzyme was purified from the conditioned medium from a CHO cell line stably expressing the resulting protein. Enzyme purification was performed through sequential Ni NTA and size-exclusion chromatography steps.
The test inhibitors were solubilized in DMSO to a stock concentration of 30 mM. On the day of the assay, dose response plates were prepared by diluting the inhibitors in DMSO at compound concentration 200-fold the final in-assay concentration. Intermediate concentrations were prepared by diluting in DMSO in a four-fold series for a total of 11 data points.
To prepare a working solution of human vanin-1, the enzyme was diluted to 33.3 pM in the assay buffer consisting of 50 mM Tris-HCl pH=8.0, 50 mM KCl, 0.005% Brij-35 and […] cysteamine. To begin the assay 100 nL was transferred from the compound plate to the assay plate. Next, 15 μL of the vanin-1 working solution were transferred to the assay plate. The inhibitor and enzyme were incubated at room temperature for 30 minutes. The enzyme reaction was then initiated by the addition of 5 μL of 200 μM pantetheine 7-amino-4-trifluoromethylcoumarin prepared in assay buffer. The final concentrations in the assay were 25 pM human vanin-1 and 50 uM substrate. The final concentration of DMSO was 0.5%. The assay plates were incubated for 60 minutes and before they were read on a Perkin Elmer EnVision Model 2103 using a 405 nm excitation wavelength and a 510 nm emission wavelength for detection.

[2] = biological target: T1, human vanin-1; test: Human Vanin-1 Enzyme Assay 3; assay type: biochemical; details: 2 nM human vanin-1, 10 uM substrate, 15 min
Experimental: Human Vanin-1 Enzyme Assay 3.
as §1, §2
On the day of the assay, dose response plates were prepared by diluting the inhibitors in DMSO at compound concentration 100-fold the final in-assay concentration. Concentration series were prepared by serially diluting in DMSO in a two-fold series for a total of 11 data points. Intermediate compound plates containing compound in 10% DMSO were then created by diluting the compounds 10-fold in assay buffer consisting of 50 mM Tris-HCl pH=8.0, 50 mM KCl, 0.005% Brij-35 and 1.5 mM cysteamine. To begin the assay 3 μL were transferred from the intermediate compound plate to the assay plate.
A working solution of human vanin-1 was prepared by diluting the enzyme stock to 2.5 nM in assay buffer. Next, 24 μL of the vanin-1 working solution were transferred to the assay plate. The enzyme reaction was then initiated by the addition of 3 μL of 100 μM pantetheine 7-amino-4-trifluoromethylcoumarin prepared in 5 uM acetic acid. The final concentrations in the assay were 2 nM human vanin-1 and 10 uM substrate. The final concentration of DMSO was 1%. The assay plates were incubated at room temperature for 15 minutes and before they were read on a Tecan Safire using a 405 nm excitation wavelength and a 505 nm emission wavelength for detection.

T1 sequence (O95497 22-491): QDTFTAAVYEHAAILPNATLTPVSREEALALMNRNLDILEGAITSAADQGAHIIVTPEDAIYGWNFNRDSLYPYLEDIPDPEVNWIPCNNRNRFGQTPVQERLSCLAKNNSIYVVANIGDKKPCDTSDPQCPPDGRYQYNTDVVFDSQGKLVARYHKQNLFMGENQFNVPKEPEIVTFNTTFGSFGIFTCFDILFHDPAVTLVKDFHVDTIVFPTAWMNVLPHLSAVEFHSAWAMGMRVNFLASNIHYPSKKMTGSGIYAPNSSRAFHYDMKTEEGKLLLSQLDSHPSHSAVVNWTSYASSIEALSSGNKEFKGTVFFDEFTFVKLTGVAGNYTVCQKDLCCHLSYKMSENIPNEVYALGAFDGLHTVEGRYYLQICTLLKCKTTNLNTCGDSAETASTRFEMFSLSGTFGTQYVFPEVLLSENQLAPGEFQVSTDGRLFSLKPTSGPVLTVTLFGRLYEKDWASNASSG

SMILES	IC50 [1] [nM]	IC50 [2] [nM]
COc1ccc(CNc2ncc(C(=O)c3ccc(F)c(F)c3)cn2)cc1 [Example 41, (3,4-difluorophenyl){2-[(4-methoxybenzyl)amino]pyrimidin-5-yl}methanone]	4270	808
Cc1cccc(C(=O)c2cnc(NCc3ccc(C#N)cc3)nc2)c1 [Example 42, 4-({[5-(3-methylbenzoyl)pyrimidin-2-yl]amino}methyl) benzonitrile]	1060	709
NC(=O)c1ccc(CNc2ncc(C(=O)c3ccc(F)c(F)c3)cn2)cc1 [Example 43, 4-({[5-(3,4-difluorobenzoyl)pyrimidin-2-yl]amino}methyl) benzamide]	2220	490
O=C(c1cnc(OCc2ccc(F)cc2)nc1)c1cccc(C(F)(F)F)c1 [Example 46, {2-[(4-fluorobenzyl)oxy]pyrimidin-5-yl}[3-(trifluoromethyl)phenyl]methanone]	> 20000	> 213
O=C(c1cnc(OCc2ccc(Cl)cc2)nc1)c1cccc(C(F)(F)F)c1 [Example 47, {2-[(4-chlorobenzyl)oxy]pyrimidin-5-yl}[3-(trifluoromethyl)phenyl]methanone]	> 5130	> 729
N#Cc1ccc(C(=O)c2cnc(NCc3ccc(F)cc3)nc2)cc1 [Example 78, 4-({2-[(4-fluorobenzyl)amino]pyrimidin-5-yl}carbonyl) benzonitrile]	> 20000	687
COc1ccc(CNc2ncc(C(=O)c3ccc(C#N)cc3)cn2)cc1 [Example 79, 4-({2-[(4-methoxybenzyl)amino]pyrimidin-5-yl}carbonyl) benzonitrile]	15100	348
O=C(c1cnc(NCc2ccccc2)nc1)c1ccc(F)c(C(F)(F)F)c1 [Example 83, [2-(benzylamino)pyrimidin-5-yl][4-fluoro-3-(trifluoromethyl)phenyl]methanone]	1050	84.4
O=C(c1cnc(NCc2ccc(F)cc2)nc1)c1ccc(F)c(C(F)(F)F)c1 [Example 85, {2-[(4-fluorobenzyl)amino]pyrimidin-5-yl}[4-fluoro-3-(trifluoromethyl)phenyl]methanone]	1130	52.8
O=C(c1cccc(Cl)c1)c1ccc(NCc2ccccc2)nn1 [Example 86, [6-(benzylamino)pyridazin-3-yl](3-chlorophenyl) methanone]	14700	758
COc1ccc(CNc2ccc(C(=O)c3cccc(C(F)(F)F)c3)nn2)cc1 [Example 88, {6-[(4-methoxybenzyl)amino]pyridazin-3-yl}[3-(trifluoromethyl)phenyl]methanone]	18600	9.3
O=C(O)c1ccc(CNc2ncc(C(=O)c3ccc(F)c(C(F)(F)F)c3)cn2)cc1 [Example 89, 4-[({5-[4-fluoro-3-(trifluoromethyl)benzoyl]pyrimidin-2-yl}amino)methyl] benzoic acid]	1000	615
O=C(c1cccc(C(F)(F)F)c1)c1ccc(NCc2ccccc2)nn1 [Example 90, [6-(benzylamino)pyridazin-3-yl][3-(trifluoromethyl)phenyl]methanone]	7430	86.4
O=C(c1cccc(C(F)(F)F)c1)c1ccc(NCc2ccc(F)cc2F)nn1 [Example 92, {6-[(2,4-difluorobenzyl)amino]pyridazin-3-yl}[3-(trifluoromethyl)phenyl]methanone]	> 20000	566
O=C(c1cnc(NCc2ccccc2)nc1)c1cc(F)cc(C(F)(F)F)c1 [Example 93, [2-(benzylamino)pyrimidin-5-yl][3-fluoro-5-(trifluoromethyl)phenyl]methanone]	2150	154
N#Cc1ccc(CNc2ncc(C(=O)c3cc(F)cc(C(F)(F)F)c3)cn2)cc1 [Example 94, 4-[({5-[3-fluoro-5-(trifluoromethyl)benzoyl]pyrimidin-2-yl}amino)methyl] benzonitrile]	2200	987
O=C(c1cnc(NCc2ccccc2)nc1)c1ccc2c(c1)OCCO2 [Example 97, [2-(benzylamino)pyrimidin-5-yl](2,3-dihydro-1,4-benzodioxin-6-yl)methanone]	4850	873
O=C(c1ccccc1)c1cnc(NCc2ccccc2)nc1 [Example 99, [2-(benzylamino)pyrimidin-5-yl](phenyl) methanone]	1680	537
O=C(c1ccccc1)c1cnc(NCc2ccccc2F)nc1 [Example 101, {2-[(2-fluorobenzyl)amino]pyrimidin-5-yl}(phenyl) methanone]	804	150
NC(=O)c1ccc(CNc2ncc(C(=O)c3ccccc3)cn2)cn1 [Example 107, 5-{[(5-benzoylpyrimidin-2-yl)amino]methyl} pyridine-2-carboxamide]	906	751

Stronger by IC50 [1], values ahead:

IC50 [1] [nM]	IC50 [2] [nM]	SMILES
242	20.5	O=C(c1cnc(NCc2ccccc2)nc1)c1cccc(C(F)(F)F)c1 [Example 35, [2-(benzylamino)pyrimidin-5-yl][3-(trifluoromethyl)phenyl]methanone]
467	660	Cc1cccc(C(=O)c2cnc(NCc3ccncc3)nc2)c1 [Example 39, (3-methylphenyl){2-[(pyridin-4-ylmethyl)amino]pyrimidin-5-yl}methanone]
508	105	CC(C)(Nc1ncc(C(=O)c2ccc(F)c(F)c2)cn1)c1ccccc1 [Example 44, (3,4-difluorophenyl){2-[(2-phenylpropan-2-yl)amino]pyrimidin-5-yl}methanone]
150	> 123	N#Cc1cccc(CNc2ncc(C(=O)c3cccc(C(F)(F)F)c3)cn2)c1 [Example 62, 3-[({5-[3-(trifluoromethyl)benzoyl]pyrimidin-2-yl}amino)methyl] benzonitrile]
99.2	74.4	N#Cc1cccc(CNc2ncc(C(=O)c3cccc(C#N)c3)cn2)c1 [Example 64, 3-({[5-(3-cyanobenzoyl)pyrimidin-2-yl]amino}methyl) benzonitrile]
29.4	46.8	NC(=O)c1ccc(CNc2ncc(C(=O)c3cccc(C(F)(F)F)c3)cn2)cn1 [Example 69, 5-[({5-[3-(trifluoromethyl)benzoyl]pyrimidin-2-yl}amino)methyl] pyridine-2-carboxamide]
140	77.8	NC(=O)c1ccc(CNc2ncc(C(=O)c3ccc(F)c(C(F)(F)F)c3)cn2)cn1 [Example 70, 5-[({5-[4-fluoro-3-(trifluoromethyl)benzoyl]pyrimidin-2-yl}amino)methyl] pyridine-2-carboxamide]
384	30.1	O=C(c1cnc(NCc2ccccn2)nc1)c1ccc(F)c(C(F)(F)F)c1 [Example 80, [4-fluoro-3-(trifluoromethyl)phenyl]{2-[(pyridin-2-ylmethyl)amino]pyrimidin-5-yl}methanone]
3.4	> 16.9	O=C(c1cnc(NCc2cccnc2)nc1)c1ccc(F)c(C(F)(F)F)c1 [Example 81, [4-fluoro-3-(trifluoromethyl)phenyl]{2-[(pyridin-3-ylmethyl)amino]pyrimidin-5-yl}methanone]
111	55.5	O=C(c1cnc(NCc2ccncc2)nc1)c1ccc(F)c(C(F)(F)F)c1 [Example 82, [4-fluoro-3-(trifluoromethyl)phenyl]{2-[(pyridin-4-ylmethyl)amino]pyrimidin-5-yl}methanone]
503	111	N#Cc1ccc(CNc2ncc(C(=O)c3ccc(F)c(C(F)(F)F)c3)cn2)cc1 [Example 84, 4-[({5-[4-fluoro-3-(trifluoromethyl)benzoyl]pyrimidin-2-yl}amino)methyl] benzonitrile]
14.2	415	CS(=O)(=O)c1cccc(C(=O)c2cnc(NCc3ccc(F)cc3)nc2)c1 [Example 96, {2-[(4-fluorobenzyl)amino]pyrimidin-5-yl}[3-(methylsulfonyl)phenyl]methanone]
